Data taken from paper PMC11062894, “Protein-based bandpass filters for controlling cellular signaling with chemical inputs” (Nature Chemical Biology, 2023).

Tested on: GEMS receptors with CBPA11 (BclXL–LD3 and BclXLhigh variants), STAT3-driven SEAP in HEK293T cells
Assay: GEMS SEAP reporter assay, CBPA11 (BclXLhigh, LD3-v and BclXL-v variants) with A-1155463
Format: cell-based
Design: key to Raw data (SEAP) / SEAP, replicate values / Raw data of Figure 5b / Raw data Figure 5e / Raw data of Independent repeat of CBPA11-v1 vs CBPA11-v1-LD3v3 / Raw data of Independent repeat of CBPA11-v3 vs CBPA11-v3-LD3v3 / Raw data of Figure 5b, CBPA11-v1-LD3v3 (SEAP reporter raw value, single replicate) / Raw data of Figure 5b, CBPA11-v1 (SEAP reporter raw value, single replicate): SEAP activity in U/L in culture supernatant
Excerpt: To rationally design a CBP responding to a chemical input, we used BclXL as the druglow receptor, LD3 as the designed binder and a designed BclXL variant as the drughigh receptor (referred to as BclXLhigh) to construct a CBP responsive to BclXL inhibitors (Fig. 4a). To design BclXLhigh, we used a multistate design computational protocol described elsewhere[26] […] Thus, BclXLhigh-v(1–3) were chosen as the functional drughigh receptors, resulting in three A-1155463-controlled CBPs (referred to as CBPA11-v(1–3)) (Fig. 4c–e).
HEK293T cells were seeded in a 96-well plate 24 h before transfection. The transfection mix in each well consisted of 3 ng of constitutive human CMV promoter driven mammalian STAT3 expression vector (PhCMV-STAT3-pA), 30 ng of STAT3-induced reporter expression (OStat3-PhCMVmin-SEAP-pA) and 50 ng of expression vectors for each GEMS receptor chain (PSV40-IgK-(drughigh receptor)-EpoRm-IL-6RBm-pA and PSV40-IgK-(druglow receptor-GGGGSX3-LD3)-EpoRm-IL-6RBm-pA). For the specific drughigh receptor and druglow receptor used in the different cellular assays, they are indicated as wild type or with mutations. Then, plasmid DNA was mixed with 50 μl opti-MEM (Thermo Fisher) and 600 ng of polyethyleneimine (Polysciences, catalog no. 24765-1). For drug treatment experiments, drugs were added 12 h post-transfection and incubated with cells for 24 h before the SEAP reporter detection assay.
SEAP activity (U l^−1) in cell culture supernatants was quantified by kinetic measurements at 405 nm (1 minute per measurement for 30 cycles) of absorbance increase due to phosphatase-mediated hydrolysis of para-nitrophenyl phosphate (pNPP).
Binding affinities of SPR drug competition assays were calculated using three-parameter nonlinear regression in GraphPad Prism (v.8.3.0). Representative data of cell assays are presented as individual values and mean values (bars). n = 3 refers to biological replicates. All IC50 or EC50 values of cell assays reported were calculated using four-parameter nonlinear regression ± s.d. Bandpass features of cutoff concentrations and Bandwidth90% were estimated based on the curve fitted using bell-shaped curve nonlinear regression in GraphPad Prism (v.8.3.0). […]
Supplementary Figure 4: Design, screening and validation of BclXLhigh variants. a) Screening of BclXLhigh variants in the GEMS platform. […]
Dissociation constant measurement of BclXLhigh-v(1-3) and LD3. Equilibrium curves are fitted using […]
BclXLhigh-v1 (purple), BclXLhigh-v2 (blue), […]
a) Bcl2high-based bandpass filter designs were developed and to respond to different concentrations of […]
corresponding inhibitor. c) Screening of Bcl2high-based bandpass filter variants in the GEMS platform.
The designed binder LD3 was fused to the druglow-receptor (PSV40-IgK-Bcl2-LD3-EpoRm-IL-6RBm-pA) in one EpoR chain and Bcl2high variants with the insensitive Bcl2 (iBcl2) as control in the other EpoR chain (PSV40-IgK-Bcl2high-EpoRm-IL-6RBm-pA). HEK293T cells were transfected with indicated […]
the mean of six biological replicates ± s.d., overlaid with a scatter dot plot of the original data points.
(1 picture or pasted object on this page, not shown here)
Supplementary Figure 6: Binding affinities and drug resistances of Bcl2high-v(2,4,5) assessed by […]
a) Measurement of dissociation constants for Bcl2high-v(2,4,5) and LD3 interactions. Equilibrium curves […]
Bcl2high-v(2,4,5) measured by SPR. 5 μM of Bcl2 or indicated variants were mixed with 10 μM of […]
Bcl2high-v2 (red), Bcl2high-v4
Supplementary Figure 7: Screening of LD3 variants in CBPA11-v(1-3) and raw data of CBPA11-v(1,3) with LD3-v3 variant. a-c) Screening of LD3 and LD3-v(1-3) variants in complex with BclXL for more sensitive CBPA11-v1 (a), CBPA11-v2 (b), CBPA11-v3 (c) in the GEMS platform. The LD3 variants replaced the role of LD3 (PSV40-IgK-BclXL-LD3-v(1-3)-EpoRm-IL-6RBm-pA) in one EpoR chain and BclXLhigh-v(1-3) in the other EpoR chain (PSV40-IgK-BclXLhigh-V(1-3)-EpoRm-IL-6RBm-pA). HEK293T cells were transfected with […]

[1] = SuppFigure 9a, BclXL, A-1155463 3.16 nM
[2] = SuppFigure 9a, BclXL, A-1155463 100 nM
[3] = SuppFigure 9a, BclXL, A-1155463 316 nM
[4] = SuppFigure 9a, BclXL, A-1155463 1000 nM
[5] = SuppFigure 9a, BclXL, A-1155463 3160 nM
[6] = SuppFigure 9a, BclXL, A-1155463 10000 nM
[7] = SuppFigure 9b, BclXL-v1, A-1155463 1 nM
[8] = SuppFigure 9b, BclXL-v1, A-1155463 3.16 nM
[9] = SuppFigure 9b, BclXL-v1, A-1155463 10 nM
[10] = SuppFigure 9b, BclXL-v1, A-1155463 31.6 nM
[11] = SuppFigure 9b, BclXL-v1, A-1155463 100 nM
[12] = SuppFigure 9b, BclXL-v1, A-1155463 316 nM
[13] = SuppFigure 9b, BclXL-v1, A-1155463 1000 nM
[14] = SuppFigure 9b, BclXL-v1, A-1155463 3160 nM
[15] = SuppFigure 9b, BclXL-v1, A-1155463 10000 nM
[16] = SuppFigure 9b, BclXL-v2, A-1155463 1 nM
[17] = SuppFigure 9b, BclXL-v2, A-1155463 3.16 nM
[18] = SuppFigure 9b, BclXL-v2, A-1155463 10 nM
[19] = SuppFigure 9b, BclXL-v2, A-1155463 31.6 nM
[20] = SuppFigure 9b, BclXL-v2, A-1155463 100 nM
[21] = SuppFigure 9b, BclXL-v2, A-1155463 316 nM
[22] = SuppFigure 9b, BclXL-v2, A-1155463 1000 nM
[23] = SuppFigure 9b, BclXL-v2, A-1155463 3160 nM
[24] = SuppFigure 9b, BclXL-v2, A-1155463 10000 nM
[25] = SuppFigure 9b, BclXL-v3, A-1155463 1 nM
[26] = SuppFigure 9b, BclXL-v3, A-1155463 3.16 nM
[27] = SuppFigure 9b, BclXL-v3, A-1155463 10 nM
[28] = SuppFigure 9b, BclXL-v3, A-1155463 31.6 nM
[29] = SuppFigure 9b, BclXL-v3, A-1155463 100 nM
[30] = SuppFigure 9b, BclXL-v3, A-1155463 316 nM
[31] = SuppFigure 9b, BclXL-v3, A-1155463 1000 nM
[32] = SuppFigure 9b, BclXL-v3, A-1155463 3160 nM
[33] = SuppFigure 9b, BclXL-v3, A-1155463 10000 nM
[34] = SuppFigure 9b, BclXL, A-1155463 1 nM
[35] = SuppFigure 9b, BclXL, A-1155463 3.16 nM
[36] = SuppFigure 9b, BclXL, A-1155463 10 nM
[37] = SuppFigure 9b, BclXL, A-1155463 31.6 nM
[38] = SuppFigure 9b, BclXL, A-1155463 100 nM
[39] = SuppFigure 9b, BclXL, A-1155463 316 nM
[40] = SuppFigure 9b, BclXL, A-1155463 1000 nM
[41] = SuppFigure 9b, BclXL, A-1155463 3160 nM
[42] = SuppFigure 9b, BclXL, A-1155463 10000 nM
[43] = SuppFigure 9c, LD3, A-1155463 1 nM
[44] = SuppFigure 9c, LD3, A-1155463 3.16 nM
[45] = SuppFigure 9c, LD3, A-1155463 10 nM
[46] = SuppFigure 9c, LD3, A-1155463 31.6 nM
[47] = SuppFigure 9c, LD3, A-1155463 100 nM

CN(C)CC#Cc1ccc(OCCCc2sc(N3CCc4cccc(C(=O)Nc5nc6ccccc6s5)c4C3)nc2C(=O)O)c(F)c1 [A-1155463]
Normalized data (SEAP) [1]: 6.043 | Raw data (SEAP) [1]: 25.9846 | Normalized data (SEAP) [2]: 100 | Raw data (SEAP) [2]: 429.99 | Normalized data (SEAP) [3]: 92.0518 | Raw data (SEAP) [3]: 395.813 | Normalized data (SEAP) [4]: 64.9807 | Raw data (SEAP) [4]: 279.41 | Normalized data (SEAP) [5]: 59.757 | Raw data (SEAP) [5]: 256.949 | Normalized data (SEAP) [6]: 20.582 | Raw data (SEAP) [6]: 88.5006 | Normalized data (SEAP) [7]: 29.2402 | Raw data (SEAP) [7]: 3.306 | Normalized data (SEAP) [8]: 25.4197 | Raw data (SEAP) [8]: 2.874 | Normalized data (SEAP) [9]: 91.2564 | Raw data (SEAP) [9]: 10.3177 | Normalized data (SEAP) [10]: 99.5447 | Raw data (SEAP) [10]: 11.2548 | Normalized data (SEAP) [11]: 88.866 | Raw data (SEAP) [11]: 10.0475 | Normalized data (SEAP) [12]: 80.3713 | Raw data (SEAP) [12]: 9.087 | Normalized data (SEAP) [13]: 71.8768 | Raw data (SEAP) [13]: 8.127 | Normalized data (SEAP) [14]: 100 | Raw data (SEAP) [14]: 11.3063 | Normalized data (SEAP) [15]: 93.1986 | Raw data (SEAP) [15]: 10.5373 | Normalized data (SEAP) [16]: 14.254 | Raw data (SEAP) [16]: 6.039 | Normalized data (SEAP) [17]: 18.0852 | Raw data (SEAP) [17]: 7.662 | Normalized data (SEAP) [18]: 44.9661 | Raw data (SEAP) [18]: 19.0516 | Normalized data (SEAP) [19]: 70.6852 | Raw data (SEAP) [19]: 29.9485 | Normalized data (SEAP) [20]: 100 | Raw data (SEAP) [20]: 42.3689 | Normalized data (SEAP) [21]: 44.6168 | Raw data (SEAP) [21]: 18.9036 | Normalized data (SEAP) [22]: 22.2068 | Raw data (SEAP) [22]: 9.409 | Normalized data (SEAP) [23]: 14.8235 | Raw data (SEAP) [23]: 6.281 | Normalized data (SEAP) [24]: 14.5729 | Raw data (SEAP) [24]: 6.174 | Normalized data (SEAP) [25]: 52.1022 | Raw data (SEAP) [25]: 4.346 | Normalized data (SEAP) [26]: 54.3684 | Raw data (SEAP) [26]: 4.535 | Normalized data (SEAP) [27]: 49.6336 | Raw data (SEAP) [27]: 4.14 | Normalized data (SEAP) [28]: 58.6885 | Raw data (SEAP) [28]: 4.895 | Normalized data (SEAP) [29]: 75.7473 | Raw data (SEAP) [29]: 6.318 | Normalized data (SEAP) [30]: 55.3616 | Raw data (SEAP) [30]: 4.618 | Normalized data (SEAP) [31]: 57.9749 | Raw data (SEAP) [31]: 4.836 | Normalized data (SEAP) [32]: 83.7705 | Raw data (SEAP) [32]: 6.988 | Normalized data (SEAP) [33]: 90.2218 | Raw data (SEAP) [33]: 7.526 | Normalized data (SEAP) [34]: 18.8536 | Raw data (SEAP) [34]: 4.217 | Normalized data (SEAP) [35]: 21.8131 | Raw data (SEAP) [35]: 4.879 | Normalized data (SEAP) [36]: 73.5481 | Raw data (SEAP) [36]: 16.4519 | Normalized data (SEAP) [37]: 74.0156 | Raw data (SEAP) [37]: 16.5565 | Normalized data (SEAP) [38]: 100 | Raw data (SEAP) [38]: 22.3689 | Normalized data (SEAP) [39]: 57.787 | Raw data (SEAP) [39]: 12.9263 | Normalized data (SEAP) [40]: 39.6131 | Raw data (SEAP) [40]: 8.861 | Normalized data (SEAP) [41]: 30.6519 | Raw data (SEAP) [41]: 6.8565 | Normalized data (SEAP) [42]: 26.3116 | Raw data (SEAP) [42]: 5.886 | Normalized data (SEAP) [43]: 9.095 | Raw data (SEAP) [43]: 7.283 | Normalized data (SEAP) [44]: 10.2911 | Raw data (SEAP) [44]: 8.241 | Normalized data (SEAP) [45]: 55.7186 | Raw data (SEAP) [45]: 44.6179 | Normalized data (SEAP) [46]: 64.2529 | Raw data (SEAP) [46]: 51.4519 | Normalized data (SEAP) [47]: 100 | Raw data (SEAP) [47]: 80.0772 | Normalized data (SEAP) (SuppFigure 9c, LD3, A-1155463 316 nM): 76.4435
